Where two headings read alike, the source gives them in different places.
How the values were obtained:
[1] = Solubility to fluorine-based solvent; conditions: 25° C.
Method: Various fluorine-based solvents were each added in a manner that a concentration was to be 1% by mass, and the resultant was stirred with maintaining the temperature at 25° C. The solubility was evaluated based on the following evaluation criteria.
• 1: The ionic liquid was dissolved in the fluorine-based solvent, and no precipitation was generated even after leaving the solution to stand. • 2: The ionic liquid was insoluble to the fluorine-based solvent, or was partially dissolved but precipitation was generated when the solution was left to stand. <<Friction Properties>> —Production of Lubricant-Coated Hard Disk—

[2] = Measurement of thermal decomposition temperature (TG-DTA, 5% weight reduction); type: physicochemical
Method: As measuring conditions, the heating speed was 10° C./min and the air flow rate was 200 mL/min.

[3] = Comprehensive evaluation (thermal decomposition temperature, friction properties, solubility)
[4] = TG-DTA, heating speed 10° C./min, air flow 200 mL/min

## NCCOCC(F)(F)OC(F)(F)C(F)(F)OC(F)(F)C(F)(F)OC(F)(F)C(F)(F)C(F)(F)C(F)(F)F.O=S(=O)(O)CCCOCC(F)(F)OC(F)(F)C(F)(F)OC(F)(F)C(F)(F)OC(F)(F)C(F)(F)C(F)(F)C(F)(F)F [Ex. 1, PFTEG amine-PFTEG sulfonic acid salt]
[1]; Novec 7100, 1% by mass
  Solubility to fluorine-based solvent: 1
[1]; Novec 7200, 1% by mass
  Solubility to fluorine-based solvent: 1
[1]; Novec 7300, 1% by mass
  Solubility to fluorine-based solvent: 1
[1]; Vertrel XF, 1% by mass
  Solubility to fluorine-based solvent: 1
[2]; [4]
  Thermal decomposition (5% weight reduction) temperature: 246 °C

## octylamine-PFTEG sulfonic Acid Salt [Comp. Ex. 1, reference compound]
[2]; [4]
  Thermal decomposition (5% weight reduction) temperature: 276 °C

## NCCOCC(F)(F)OC(F)(F)C(F)(F)OC(F)(F)C(F)(F)OC(F)(F)C(F)(F)C(F)(F)C(F)(F)F.O=S(=O)(O)C(F)(F)C(F)(F)C(F)(F)C(F)(F)F [Ex. 3, PFTEG amine-perfluorobutane sulfonic acid salt]
[1]; Novec 7100, 1% by mass
  Solubility to fluorine-based solvent: 1
[1]; Novec 7200, 1% by mass
  Solubility to fluorine-based solvent: 1
[1]; Novec 7300, 1% by mass
  Solubility to fluorine-based solvent: 1
[1]; Vertrel XF, 1% by mass
  Solubility to fluorine-based solvent: 1
[3]
  Thermal stability and friction coefficient (in words): more excellent
[2]; [4]
  Thermal decomposition (5% weight reduction) temperature: 302 °C

## NCCC(F)(F)C(F)(F)C(F)(F)C(F)(F)C(F)(F)C(F)(F)C(F)(F)C(F)(F)F.O=C(O)C(F)(F)OC(F)(F)C(F)(F)OC(F)(F)C(F)(F)OC(F)(F)C(F)(F)C(F)(F)C(F)(F)F [Ex. 4, 1H,1H,2H,2H-perfluorodecylamine-perfluoro-3,6,9-trioxatridecanoic acid salt]
[1]; Novec 7100, 1% by mass
  Solubility to fluorine-based solvent: 1
[1]; Novec 7200, 1% by mass
  Solubility to fluorine-based solvent: 1
[1]; Novec 7300, 1% by mass
  Solubility to fluorine-based solvent: 1
[1]; Vertrel XF, 1% by mass
  Solubility to fluorine-based solvent: 1
[2]; [4]
  Thermal decomposition (5% weight reduction) temperature: 169 °C

## NCCC(F)(F)C(F)(F)C(F)(F)C(F)(F)C(F)(F)C(F)(F)C(F)(F)C(F)(F)F.O=S(=O)(O)C(F)(F)C(F)(F)C(F)(F)C(F)(F)F [compound 2, 1H,1H,2H,2H-perfluorodecylamine-perfluorobutane sulfonic acid salt, reference compound]
[1]; Novec 7100, 1% by mass
  Solubility to fluorine-based solvent: 2
[1]; Novec 7200, 1% by mass
  Solubility to fluorine-based solvent: 2
[1]; Novec 7300, 1% by mass
  Solubility to fluorine-based solvent: 2
[1]; Vertrel XF, 1% by mass
  Solubility to fluorine-based solvent: 2
[2]; [4]
  Thermal decomposition (5% weight reduction) temperature: 308 °C

## octadecylamine-perfluoroheptanoic Acid Salt [compound 3, reference compound]
[1]; Novec 7100, 1% by mass
  Solubility to fluorine-based solvent: 2
[1]; Novec 7200, 1% by mass
  Solubility to fluorine-based solvent: 2
[1]; Novec 7300, 1% by mass
  Solubility to fluorine-based solvent: 2
[1]; Vertrel XF, 1% by mass
  Solubility to fluorine-based solvent: 2
[2]; [4]
  Thermal decomposition (5% weight reduction) temperature: 204 °C

## NCCOCC(F)(F)OC(F)(F)C(F)(F)OC(F)(F)C(F)(F)OC(F)(F)C(F)(F)C(F)(F)C(F)(F)F.O=S(=O)(NS(=O)(=O)C(F)(F)C(F)(F)C(F)(F)C(F)(F)F)C(F)(F)C(F)(F)C(F)(F)C(F)(F)F [Ex. 5, PFTEG amine-bis(perfluorobutanesulfonyl)imide salt]
[1]; Novec 7100, 1% by mass
  Solubility to fluorine-based solvent: 1
[1]; Novec 7200, 1% by mass
  Solubility to fluorine-based solvent: 1
[1]; Novec 7300, 1% by mass
  Solubility to fluorine-based solvent: 1
[1]; Vertrel XF, 1% by mass
  Solubility to fluorine-based solvent: 1
[2]; [4]
  Thermal decomposition (5% weight reduction) temperature: 291 °C

## NCCC(F)(F)C(F)(F)C(F)(F)C(F)(F)C(F)(F)C(F)(F)C(F)(F)C(F)(F)F.O=S(=O)(O)CCCOCC(F)(F)OC(F)(F)C(F)(F)OC(F)(F)C(F)(F)OC(F)(F)C(F)(F)C(F)(F)C(F)(F)F [Ex. 2, 1H,1H,2H,2H-perfluorodecylamine-PFTEG sulfonic acid salt]
[2]
  Thermal decomposition (5% weight reduction) temperature: 254 °C

From patent US10141017B2, “Lubricant for magnetic recording medium, and magnetic recording medium” (Dexerials Corporation, priority 2015, dated 2018)
